Here are results for 19 molecules from ChEMBL document CHEMBL2029335, “Synthesis, X-ray analysis, and biological evaluation of a new class of stereopure lactam-based HIV-1 protease inhibitors” (J Med Chem, 2012).

Some results are limits rather than exact numbers.

The subject of data set [1] is Human immunodeficiency virus 1. As to the kind of experiment: Antiviral activity against HIV1 infected in human MT4 cells. The class given is functional, organism-based. To be noted: Human immunodeficiency virus 1, MT4.
For a further data set, the system named is Caco-2. In words: Apparent permeability from apical to basolateral side in human Caco2 cells after 60 mins. Conditions: caco-2, 1 h. The class given is ADME, cell-based. Background: Caco-2 monolayers are a common model of the intestinal barrier.
The target in another data set is Protease (Human immunodeficiency virus 1, UniProt Q9YQ12). In words: Inhibition of HIV1 protease expressed in Escherichia coli using DABCYL-Abu-Ser-Gln-ASN-Tyr-Pro-Ile-Val-Gln-EDANS as substrate preincubated for 20 mins measured for 45 mins by fluorometry.
A further data set concerns Liver microsomes. In words: (§1) Intrinsic clearance in human liver microsomes at 1 uM after 30 mins by LC-MS/MS analysis. Conditions: microsomes, 0.5 h, 1 µM. The class given is ADME, Microsome. A general note: Liver microsomes are a subcellular fraction often used to study metabolism.
A further data set relates to MT4. In words: Cytotoxicity against human MT4 cells after 5 days by XTT assay. The class given is cell-based. Conditions: mt4, 120 h. (In general: Formazan colour is commonly taken as a measure of viable cells.)
Data set [2] in a line: as §1. The class given is ADME, Microsome. Conditions: liver microsomes, read-out: CLH.

Protease, sequence (Q9YQ12 whole entry): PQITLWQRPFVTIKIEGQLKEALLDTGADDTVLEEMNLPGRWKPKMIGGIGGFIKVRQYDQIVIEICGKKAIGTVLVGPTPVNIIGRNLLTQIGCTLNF

For `COC(=O)N[C@H](C(=O)NN(CC[C@@]1(Cc2ccccc2)C(=O)N([C@H]2c3ccccc3C[C@H]2O)C[C@@H]1O)Cc1ccc(-c2cccnc2)cc1)C(C)(C)C`, the midpoint of the response in data set [1], the EC50, lay at 100 nM. Besides, in the data set on Caco-2, the Papp was 5.1 ×10⁻⁶ cm/s. The affinity on Protease corresponds to a Ki of 0.7 nM. The CLH with Liver microsomes amounted to 120 µL/min/mg.

`COC(=O)N[C@H](C(=O)NN(CCC1(Cc2ccccc2)C(=O)N([C@H]2c3ccccc3C[C@H]2O)CC1O)Cc1ccc(-c2ccncc2)cc1)C(C)(C)C` (stereo not given in full): the inhibition constant Ki at Protease came to 0.8 nM.

Take `COC(=O)N[C@H](C(=O)NN(CC[C@@]1(Cc2ccccc2)C(=O)N([C@H]2c3ccccc3C[C@H]2O)C[C@@H]1O)Cc1ccc(-c2ccccn2)cc1)C(C)(C)C`: in the data set with MT4, the CC50 is more than 50000 nM. The same molecule had an EC50 in data set [1] of 180 nM. The same molecule gave a Ki at Protease of 2 nM.

Turning to `COC(=O)N[C@H](C(=O)NN(CC[C@]1(Cc2ccccc2)C(=O)N([C@H]2c3ccccc3C[C@H]2O)C[C@H]1O)Cc1ccc(Br)cc1)C(C)(C)C`, the CC50 with MT4 was 15000 nM. The molecule further gave an EC50 in data set [1] of more than 10000 nM. Also, the Ki at Protease came out at 1200 nM.

For the molecule `COC(=O)N[C@H](C(=O)NN(CC[C@@]1(Cc2ccccc2)C(=O)N([C@H]2c3ccccc3C[C@H]2O)C[C@@H]1O)Cc1ccc(-c2ccncc2)cc1)C(C)(C)C`, it took 96 nM to reach a half-maximal effect in data set [1] (EC50). The molecule also yielded a Ki at Protease of 1.7 nM.

As for `COC(=O)N[C@H](C(=O)NN(CC[C@@]1(Cc2ccccc2)C(=O)N([C@H]2c3ccccc3C[C@H]2O)C[C@H]1O)Cc1ccc(-c2ccccn2)cc1)C(C)(C)C`, the CC50 in the data set with MT4 was determined as 28000 nM. This molecule showed an EC50 in data set [1] of 190 nM. At Protease, affinity was put at a Ki of 1.7 nM.

In the data set on MT4, `COC(=O)N[C@H](C(=O)NN(CCC[C@@]1(Cc2ccccc2)C(=O)N([C@H]2c3ccccc3C[C@H]2O)C[C@H]1O)Cc1ccc(Br)cc1)C(C)(C)C` showed a CC50 of 26000 nM. The molecule also gave an EC50 in data set [1] of 3900 nM. Moreover, the Papp in the data set with Caco-2 was determined as 22 ×10⁻⁶ cm/s. This molecule gave a Ki at Protease of 13 nM. In addition, in the data set with Liver microsomes, the CLH was more than 300 µL/min/mg.

In turn, `COC(=O)N[C@H](C(=O)NN(CCC[C@@]1(Cc2ccccc2)C(=O)N([C@H]2c3ccccc3C[C@H]2O)C[C@H]1O)Cc1ccc(-c2ccccc2)cc1)C(C)(C)C` registered a CC50 in the data set on MT4 of 15000 nM. This molecule also yielded an EC50 in data set [1] of 850 nM. The molecule also registered a Ki at Protease of 12 nM.

In the data set on MT4, `COC(=O)N[C@H](C(=O)NN(CC[C@@]1(Cc2ccccc2)C(=O)N([C@H]2c3ccccc3C[C@H]2O)C[C@H]1O)Cc1ccc(-c2ccncc2)cc1)C(C)(C)C` returned a CC50 of more than 50000 nM. The molecule further showed an EC50 in data set [1] of 40 nM. The molecule further returned a Ki at Protease of 0.4 nM.

The molecule `COC(=O)N[C@H](C(=O)NN(CC[C@@]1(Cc2ccccc2)C(=O)N([C@H]2c3ccccc3C[C@H]2O[Si](C)(C)C(C)(C)C)C[C@H]1O[Si](C)(C)C(C)(C)C)Cc1ccc(Br)cc1)C(C)(C)C` gave a CC50 with MT4 of more than 50000 nM. Moreover, the EC50 in data set [1] is more than 10000 nM. The Ki at Protease is 760 nM.

In turn, `COC(=O)N[C@H](C(=O)NN(CC[C@@]1(Cc2ccccc2)C(=O)N([C@H]2c3ccccc3C[C@H]2O)C[C@H]1O)Cc1ccc(Br)cc1)C(C)(C)C` yielded a CC50 in the data set with MT4 of more than 50000 nM. Further, it took 640 nM to reach a half-maximal effect in data set [1] (EC50). At Protease, this molecule yielded a Ki of 2.1 nM. In addition, the CLH in the data set with Liver microsomes is more than 300 µL/min/mg.

In turn, `COC(=O)N[C@H](C(=O)NN(CCC[C@@]1(Cc2ccccc2)C(=O)N([C@H]2c3ccccc3C[C@H]2O)C[C@H]1O)Cc1ccc(-c2ccccn2)cc1)C(C)(C)C` had a CC50 in the data set on MT4 of 31000 nM. Besides, in data set [1], the midpoint of the response, the EC50, lay at 2500 nM. Also, in the data set with Caco-2, the Papp was 3.4 ×10⁻⁶ cm/s. This molecule also returned a Ki on Protease of 6.3 nM. For the same molecule, the CLH with Liver microsomes was found to be 130 µL/min/mg.

In turn, `COC(=O)N[C@H](C(=O)NN(CC[C@]1(Cc2ccccc2)C(=O)N([C@H]2c3ccccc3C[C@H]2O)C[C@@H]1O)Cc1ccc(Br)cc1)C(C)(C)C` registered an EC50 in data set [1] of more than 10000 nM. The Ki on Protease came to 940 nM.

`COC(=O)N[C@H](C(=O)N[C@@H](Cc1ccccc1)[C@@H](O)CN(Cc1ccc(-c2ccccn2)cc1)NC(=O)[C@@H](NC(=O)OC)C(C)(C)C)C(C)(C)C` [ATAZANAVIR] showed an EC50 in data set [1] of 3.9 nM. Also, the microsomal CLint at 1 µM in data set [2] came out at 90 µL/min/mg.

Take `COC(=O)N[C@H](C(=O)NN(CC[C@@]1(Cc2ccccc2)C(=O)N([C@H]2c3ccccc3C[C@H]2O)C[C@@H]1O)Cc1ccc(Br)cc1)C(C)(C)C`: it took 350 nM to reach a half-maximal effect in data set [1] (EC50). The apparent permeability coefficient (Papp) in the data set on Caco-2 was 17 ×10⁻⁶ cm/s. In addition, the Ki on Protease was 6.4 nM.

In turn, `COC(=O)N[C@H](C(=O)NN(CCC[C@@]1(Cc2ccccc2)C(=O)N([C@H]2c3ccccc3C[C@H]2O)C[C@H]1O)Cc1ccc(-c2cccnc2)cc1)C(C)(C)C` registered a cytotoxic concentration (CC50) in the data set on MT4 of 23000 nM. Also, in data set [1], the EC50 was 1800 nM. Besides, the Papp in the data set on Caco-2 turned out to be 4.4 ×10⁻⁶ cm/s. This molecule came in with a Ki at Protease of 5.3 nM. Moreover, the CLH in the data set on Liver microsomes was determined as 122 µL/min/mg.

`COC(=O)N[C@H](C(=O)NN(CC[C@@]1(Cc2ccccc2)C(=O)N([C@H]2c3ccccc3C[C@H]2O[Si](C)(C)C(C)(C)C)C[C@@H]1O[Si](C)(C)C(C)(C)C)Cc1ccc(Br)cc1)C(C)(C)C` returned an EC50 in data set [1] of more than 10000 nM. Moreover, the Ki on Protease turned out to be 800 nM.

In the data set with MT4, `COC(=O)N[C@H](C(=O)NN(CCC[C@@]1(Cc2ccccc2)C(=O)N([C@H]2c3ccccc3C[C@H]2O)C[C@H]1O)Cc1ccc(-c2ccncc2)cc1)C(C)(C)C` displayed a CC50 of 5900 nM. The response in data set [1] was half-maximal at 700 nM (EC50).

In the data set on MT4, `COC(=O)N[C@H](C(=O)NN(CC[C@@]1(Cc2ccccc2)C(=O)N([C@H]2c3ccccc3C[C@H]2O)C[C@H]1O)Cc1ccc(-c2cccnc2)cc1)C(C)(C)C` registered a CC50 of more than 50000 nM. In addition, in data set [1], the EC50 was determined as 40 nM. In addition, the Papp in the data set on Caco-2 was 3.8 ×10⁻⁶ cm/s. This molecule also returned a Ki at Protease of 0.8 nM. This molecule also returned a CLH in the data set with Liver microsomes of 230 µL/min/mg.

For orientation: EC50 means the concentration at which the effect is half-maximal. By Papp is commonly meant the rate of passage across a membrane or cell layer, normalised by area and donor concentration. What is called Ki is a measure of affinity in units of concentration, obtained from inhibition or displacement. A high value points to a looser hold on the target. As a reminder, the CC50 is the concentration at which the toxic effect on the cells reaches its halfway point. A low value points to greater toxicity to the cells.
